The values below come from ChEMBL document CHEMBL3045122, “Synthesis, in vitro antimicrobial, antiproliferative, and QSAR studies of N-(substituted phenyl)-2/4-(1H-indol-3-ylazo)-benzamides” (Med Chem Res, 2013).

Where only a bound is given, the exact number is not on record here.

Experiment [1] has as its system P388. In words: Ratio of 5-Fluorouracil IC50 to compound IC50 for Mus musculus (mouse) P388 cells. Format: functional.
For experiment [2], the system named is HCT-116. In words: Cytotoxicity against Homo sapiens (human) HCT116 cells assessed as growth inhibition after 72 hr by MTT assay. Format: functional, cell-based.
Experiment [3] has as its system Escherichia coli. The experiment can be described thus: Antibacterial activity against Escherichia coli assessed as growth inhibition after 24 hr by tube dilution method. The experiment is classed as functional.
Experiment [4] has as its system Candida albicans. The experiment can be described thus: Ratio of MFC to MIC for Candida albicans. Format: functional.
Experiment [5] concerns Candida albicans. The experiment can be described thus: Fungicidal activity against Candida albicans. The experiment is classed as functional.
The test system of experiment [6] is Aspergillus niger. The experiment can be described thus: Ratio of MFC to MIC for Aspergillus niger. Format: functional.
The subject of experiment [7] is Staphylococcus aureus. The experiment can be described thus: Ratio of MBC to MIC for Staphylococcus aureus. Format: functional.
For experiment [8], the system named is Bacillus subtilis. In words: Bactericidal activity against Bacillus subtilis. The experiment is classed as functional.
The test system of experiment [9] is Candida albicans. The experiment can be described thus: Antifungal activity against Candida albicans assessed as growth inhibition after 48 hr by tube dilution method. The experiment is classed as functional.
The test system of experiment [10] is Escherichia coli. In words: Ratio of MBC to MIC for Escherichia coli. The experiment is classed as functional.
Experiment [11] deals with Staphylococcus aureus. The experiment can be described thus: Bactericidal activity against Staphylococcus aureus. Format: functional.
The next experiment has as its system MCF7. In words: Cytotoxicity against Homo sapiens (human) MCF7 cells assessed as growth inhibition after 72 hr by MTT assay. The experiment is classed as functional, cell-based.
For experiment [12], the system named is Aspergillus niger. The experiment can be described thus: Antifungal activity against Aspergillus niger assessed as growth inhibition after 7 days by tube dilution method. The experiment is classed as functional.
The subject of experiment [13] is Bacillus subtilis. In words: Antibacterial activity against Bacillus subtilis assessed as growth inhibition after 24 hr by tube dilution method. Format: functional.
The subject of experiment [14] is Aspergillus niger. The experiment can be described thus: Fungicidal activity against Aspergillus niger. The experiment is classed as functional.
Experiment [15] relates to Staphylococcus aureus. In words: Antibacterial activity against Staphylococcus aureus assessed as growth inhibition after 24 hr by tube dilution method. The experiment is classed as functional.
The test system of experiment [16] is Escherichia coli. The experiment can be described thus: Bactericidal activity against Escherichia coli. The experiment is classed as functional.
For experiment [17], the system named is P388. The experiment can be described thus: Cytotoxicity against Mus musculus (mouse) P388 cells assessed as growth inhibition after 72 hr by MTT assay. The experiment is classed as functional, cell-based.
The subject of experiment [18] is Bacillus subtilis. In words: Ratio of MBC to MIC for Bacillus subtilis. The experiment is classed as functional.
For experiment [19], the system named is HCT-116. The experiment can be described thus: Ratio of 5-Fluorouracil IC50 to compound IC50 for Homo sapiens (human) HCT116 cells. Format: functional.

`Cc1cccc(NC(=O)c2ccc(/N=N\c3c[nH]c4ccccc34)cc2)c1`: in the experiment on P388 [1], the “Ratio IC50” value turned out to be 73. For the same molecule, the IC50 in the experiment with HCT-116 [2] was determined as 0.0989 uM/ml; with MCF7 it was 0.0734 uM/ml; in the experiment with P388 [17], 0.0003 uM/ml. For the same molecule, the “-logMIC” value amounted to 1.75 in the experiment on Escherichia coli [3]; 1.45 with Candida albicans [9]; 1.45 with Aspergillus niger [12]; 1.75 in the experiment on Bacillus subtilis [13]; 1.45 in the experiment with Staphylococcus aureus [15]. Moreover, the Ratio in the experiment on Candida albicans [4], in the experiment on Aspergillus niger [6], with Staphylococcus aureus [7], in the experiment with Escherichia coli [10] and in the experiment on Bacillus subtilis [18] was 3 each time. Besides, the MFC against Candida albicans [5] and in the experiment with Aspergillus niger [14] was 0.04 uM/ml each time. The MBC against Bacillus subtilis [8], in the experiment with Staphylococcus aureus [11] and in the experiment with Escherichia coli [16] was over 0.14 uM/ml each time.
With `O=C(Nc1cccc([N+](=O)[O-])c1)c1ccc(/N=N\c2c[nH]c3ccccc23)cc1`, the IC50 came out at 0.0701 uM/ml in the experiment with HCT-116 [2], 0.0519 uM/ml with MCF7 and 0.0519 uM/ml in the experiment on P388 [17]. Also, the “-logMIC” value in the experiment on Escherichia coli [3] was found to be 1.49; in the experiment on Candida albicans [9] it was 1.49; in the experiment on Aspergillus niger [12], 1.49; with Bacillus subtilis [13], 1.79; with Staphylococcus aureus [15] it was 1.19. Moreover, the Ratio in the experiment with Candida albicans [4], in the experiment with Aspergillus niger [6], in the experiment on Staphylococcus aureus [7], with Escherichia coli [10] and in the experiment on Bacillus subtilis [18] was 3 each time. Besides, the figures for the MFC with Candida albicans [5] and in the experiment on Aspergillus niger [14] were 0.06 uM/ml and 0.03 uM/ml, respectively. Moreover, the MBC in the experiment on Bacillus subtilis [8], in the experiment on Staphylococcus aureus [11] and with Escherichia coli [16] was over 0.13 uM/ml in each case.
`O=C(Nc1ccc([N+](=O)[O-])cc1)c1ccc(/N=N\c2c[nH]c3ccccc23)cc1`: the IC50 is reported as 0.1558 uM/ml in the experiment on HCT-116 [2], 0.0545 uM/ml in the experiment on MCF7 and 0.0112 uM/ml in the experiment on P388 [17]. Moreover, the “-logMIC” value was 1.79 in the experiment on Escherichia coli [3]; 1.49 in the experiment with Candida albicans [9]; 1.49 with Aspergillus niger [12]; 1.49 in the experiment on Bacillus subtilis [13]; 1.79 with Staphylococcus aureus [15]. Moreover, the Ratio in the experiment with Candida albicans [4], with Aspergillus niger [6], in the experiment on Staphylococcus aureus [7], with Escherichia coli [10] and with Bacillus subtilis [18] was 3 throughout. Besides, the figures for the MFC in the experiment on Candida albicans [5] and against Aspergillus niger [14] were 0.13 uM/ml and 0.03 uM/ml, respectively. The MBC with Bacillus subtilis [8], with Staphylococcus aureus [11] and with Escherichia coli [16] was over 0.13 uM/ml throughout.
For `Cc1ccc(NC(=O)c2ccc(/N=N\c3c[nH]c4ccccc34)cc2)cc1`, the “Ratio IC50” value in the experiment on P388 [1] was determined as 73; in the experiment with HCT-116 [19], 1.8. Further, the results for the IC50 in the experiment on HCT-116 [2], with MCF7 and in the experiment on P388 [17] were 0.0254 uM/ml, 0.0424 uM/ml and 0.0003 uM/ml, respectively. Besides, the “-logMIC” value in the experiment on Escherichia coli [3], in the experiment with Candida albicans [9], with Aspergillus niger [12], in the experiment with Bacillus subtilis [13] and with Staphylococcus aureus [15] was 1.45 in each case. The Ratio in the experiment with Candida albicans [4], with Aspergillus niger [6], in the experiment on Staphylococcus aureus [7], with Escherichia coli [10] and in the experiment with Bacillus subtilis [18] was 3 in each case. The MFC in the experiment with Candida albicans [5] is reported as over 0.14 uM/ml; against Aspergillus niger [14], 0.04 uM/ml. The MBC in the experiment on Bacillus subtilis [8], in the experiment with Staphylococcus aureus [11] and in the experiment on Escherichia coli [16] was over 0.14 uM/ml throughout.
As to `Cc1cccc(NC(=O)c2ccc(/N=N\c3c[nH]c4ccccc34)cc2)c1C`, the results for the IC50 in the experiment with HCT-116 [2], with MCF7 and in the experiment with P388 [17] were 0.2717 uM/ml, 0.106 uM/ml and 0.0516 uM/ml, respectively. Further, the “-logMIC” value with Escherichia coli [3] stood at 1.47; in the experiment with Candida albicans [9] it was 1.47; in the experiment on Aspergillus niger [12] it was 1.47; in the experiment on Bacillus subtilis [13] it was 1.47; in the experiment on Staphylococcus aureus [15] it was 1.77. Also, the Ratio in the experiment on Candida albicans [4], with Aspergillus niger [6], in the experiment on Staphylococcus aureus [7], with Escherichia coli [10] and in the experiment on Bacillus subtilis [18] was 3 each time. Also, the MFC is reported as over 0.14 uM/ml with Candida albicans [5] and 0.03 uM/ml with Aspergillus niger [14]. Further, the MBC in the experiment on Bacillus subtilis [8], against Staphylococcus aureus [11] and in the experiment with Escherichia coli [16] was over 0.14 uM/ml each time.
